Values quoted from earlier work in paper PMC3691235, “Discovery of a Novel Dual Fungal CYP51/Human 5-Lipoxygenase Inhibitor: Implications for Anti-Fungal Therapy” (PLoS ONE, 2013).

What was measured:
[1] = target: T1, Human leukocyte 5-lipoxygenase (Homo sapiens, UniProt P09917); settings: ref [12], [13]; read-out: 5-LOX IC50; cited from earlier work
T1 construct: made in house
T1 sequence (P09917 1-674): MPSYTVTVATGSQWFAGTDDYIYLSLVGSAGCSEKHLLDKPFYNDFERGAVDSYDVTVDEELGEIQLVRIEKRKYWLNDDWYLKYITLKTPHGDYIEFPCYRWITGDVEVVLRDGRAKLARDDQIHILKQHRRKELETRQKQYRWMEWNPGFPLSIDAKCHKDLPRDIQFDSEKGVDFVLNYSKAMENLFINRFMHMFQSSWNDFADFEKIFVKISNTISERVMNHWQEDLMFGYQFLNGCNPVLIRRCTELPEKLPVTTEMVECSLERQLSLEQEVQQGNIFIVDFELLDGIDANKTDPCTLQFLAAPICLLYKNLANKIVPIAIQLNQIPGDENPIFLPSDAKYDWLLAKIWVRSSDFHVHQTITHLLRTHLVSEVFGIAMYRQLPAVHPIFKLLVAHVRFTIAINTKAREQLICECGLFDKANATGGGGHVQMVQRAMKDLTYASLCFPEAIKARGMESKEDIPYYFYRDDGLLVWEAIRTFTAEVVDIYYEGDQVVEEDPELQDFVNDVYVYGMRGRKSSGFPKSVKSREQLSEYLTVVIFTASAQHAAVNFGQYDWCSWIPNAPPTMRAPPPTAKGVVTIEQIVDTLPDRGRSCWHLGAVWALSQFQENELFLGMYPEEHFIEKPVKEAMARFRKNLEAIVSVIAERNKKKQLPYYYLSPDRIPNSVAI

[2] = target: T2, Homo sapiens CYP51 (HsCYP51) (Homo sapiens, UniProt Q16850); parameters: method as in PMID 20149798; settings: ref [40]; read-out: Kd with HsCYP51, previously reported; cited from earlier work
T2 construct: made in house; host or cells: E. coli
T2 sequence (Q16850 1-509): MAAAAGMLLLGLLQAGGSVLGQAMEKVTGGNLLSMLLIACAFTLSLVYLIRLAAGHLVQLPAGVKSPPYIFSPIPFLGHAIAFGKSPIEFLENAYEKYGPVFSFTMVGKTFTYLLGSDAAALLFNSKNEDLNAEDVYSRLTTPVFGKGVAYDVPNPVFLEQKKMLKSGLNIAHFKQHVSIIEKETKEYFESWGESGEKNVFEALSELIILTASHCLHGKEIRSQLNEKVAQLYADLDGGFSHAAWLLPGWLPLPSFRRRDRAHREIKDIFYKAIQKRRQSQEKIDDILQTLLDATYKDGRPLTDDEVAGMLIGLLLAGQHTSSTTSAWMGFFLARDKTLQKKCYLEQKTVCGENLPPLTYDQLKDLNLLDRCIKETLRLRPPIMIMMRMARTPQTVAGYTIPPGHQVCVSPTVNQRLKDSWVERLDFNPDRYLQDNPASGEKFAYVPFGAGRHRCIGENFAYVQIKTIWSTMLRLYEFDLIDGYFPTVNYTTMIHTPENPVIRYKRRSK

Structure (SMILES) | IC50 [1] [µM] | Kd [2] [µM]
CCC(C)n1ncn(-c2ccc(N3CCN(c4ccc(OCC5COC(Cn6cncn6)(c6ccc(Cl)cc6Cl)O5)cc4)CC3)cc2)c1=O (centres unmarked) [itraconazole] | > 50 | –
Clc1ccc(COC(Cn2ccnc2)c2ccc(Cl)cc2Cl)c(Cl)c1 (centres unmarked) [miconazole] | – | < 0.1
